Tests used:
[1] = biological target: Adenosine receptor A2a (Mus musculus) (UniProt Q60613); experiment: Displacement of [3H]2-[p-(2-carboxyethyl)phenylethylamino]-5-N-ethylcarboxamidoadenosine from mouse A2A adenosine receptor expressed in HEK293 cell membranes at 10 uM after 60 mins by scintillation proximity assay relative to adenosine 5-N-ethyluronamide
[2] = biological target: T1, Adenosine receptor A2a (Homo sapiens, UniProt P29274); experiment: Displacement of [3H]2-[p-(2-carboxyethyl)phenylethylamino]-5-N-ethylcarboxamidoadenosine from human A2A adenosine receptor expressed in HEK293 cell membranes at 10 uM after 60 mins by scintillation proximity assay relative to adenosine 5-N-ethyluronamide
T1 sequence (P29274 whole entry): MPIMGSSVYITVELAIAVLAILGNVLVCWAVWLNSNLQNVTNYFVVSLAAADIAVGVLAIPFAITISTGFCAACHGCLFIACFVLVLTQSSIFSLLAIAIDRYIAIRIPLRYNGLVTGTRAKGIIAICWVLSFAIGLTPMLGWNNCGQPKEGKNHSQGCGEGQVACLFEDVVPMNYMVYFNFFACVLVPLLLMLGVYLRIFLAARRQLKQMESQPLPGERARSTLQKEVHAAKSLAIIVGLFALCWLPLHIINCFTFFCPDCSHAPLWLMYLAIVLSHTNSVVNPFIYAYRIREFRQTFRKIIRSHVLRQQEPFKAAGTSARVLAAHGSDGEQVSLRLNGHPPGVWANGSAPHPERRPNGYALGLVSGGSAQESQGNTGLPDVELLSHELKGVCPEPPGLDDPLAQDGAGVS

[3] = biological target: Sigma intracellular receptor 2 (Homo sapiens, UniProt Q5BJF2); experiment: Inhibition of sigma receptor 2 (unknown origin)
Sequence of Sigma intracellular receptor 2 (Q5BJF2 whole entry): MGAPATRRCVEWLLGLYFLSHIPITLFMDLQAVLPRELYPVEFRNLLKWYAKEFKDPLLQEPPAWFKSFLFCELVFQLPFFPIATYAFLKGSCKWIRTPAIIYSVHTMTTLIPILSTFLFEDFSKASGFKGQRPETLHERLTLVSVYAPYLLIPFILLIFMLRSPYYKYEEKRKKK

[4] = biological target: T2, Adenosine receptor A3 (Homo sapiens) (UniProt P0DMS8); experiment: Displacement of [125I]N6-(4-amino-3-iodobenzyl)adenosine-5-N-methyluronamide from human A3A adenosine receptor expressed in CHO cell membranes at 10 uM after 60 mins by scintillation proximity assay relative to adenosine 5-N-ethyluronamide
T2 sequence (whole entry): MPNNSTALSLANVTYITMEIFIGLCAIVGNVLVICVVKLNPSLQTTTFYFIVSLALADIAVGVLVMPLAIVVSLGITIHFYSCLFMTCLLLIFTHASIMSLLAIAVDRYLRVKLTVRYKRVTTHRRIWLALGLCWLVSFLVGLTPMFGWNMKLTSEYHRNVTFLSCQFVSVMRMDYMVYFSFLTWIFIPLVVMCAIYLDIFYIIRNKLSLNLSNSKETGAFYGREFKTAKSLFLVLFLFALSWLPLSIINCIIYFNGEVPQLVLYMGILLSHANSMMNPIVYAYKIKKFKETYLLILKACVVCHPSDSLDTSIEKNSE

[5] = biological target: T3, Adenosine receptor A3 (Mus musculus) (UniProt Q61618); experiment: Displacement of [125I]N6-(4-amino-3-iodobenzyl)adenosine-5-N-methyluronamide from mouse A3A adenosine receptor expressed in CHO cell membranes at 10 uM after 60 mins by scintillation proximity assay relative to adenosine 5-N-ethyluronamide
T3 sequence (whole entry): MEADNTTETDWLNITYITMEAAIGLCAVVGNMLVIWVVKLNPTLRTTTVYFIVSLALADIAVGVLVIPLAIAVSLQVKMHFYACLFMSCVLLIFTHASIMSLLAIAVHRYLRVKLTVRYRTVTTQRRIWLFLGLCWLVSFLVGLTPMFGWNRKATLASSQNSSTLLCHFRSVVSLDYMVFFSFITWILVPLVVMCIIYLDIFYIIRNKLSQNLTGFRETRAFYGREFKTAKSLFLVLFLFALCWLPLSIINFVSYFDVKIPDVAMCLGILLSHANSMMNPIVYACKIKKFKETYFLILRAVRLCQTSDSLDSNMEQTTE

[6] = biological target: T4, Adenosine receptor A1 (Mus musculus) (UniProt Q60612); experiment: Agonist activity at mouse A1A adenosine receptor at 10 uM after 60 mins by [35S]GTPgammaS binding assay relative to (2S,3S,4R,5R)-5-(6-amino-9H-purin-9-yl)-N-ethyl-3,4-dihydroxytetrahydrofuran-2-carboxamide; format: functional
T4 sequence (whole entry): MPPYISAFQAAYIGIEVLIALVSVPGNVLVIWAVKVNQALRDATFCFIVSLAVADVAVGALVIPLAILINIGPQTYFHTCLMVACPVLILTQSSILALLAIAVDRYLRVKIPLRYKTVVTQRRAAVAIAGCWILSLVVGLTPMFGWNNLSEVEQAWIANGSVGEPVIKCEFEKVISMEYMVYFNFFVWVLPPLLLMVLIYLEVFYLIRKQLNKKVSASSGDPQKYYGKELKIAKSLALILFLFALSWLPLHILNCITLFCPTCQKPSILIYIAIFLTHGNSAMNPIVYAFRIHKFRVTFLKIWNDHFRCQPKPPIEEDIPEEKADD

[7] = biological target: T3, Adenosine receptor A3 (Mus musculus); experiment: Agonist activity at mouse A3AR adenosine receptor at 10 uM after 60 mins by [35S]GTPgammaS binding assay relative to (2S,3S,4R,5R)-5-(6-amino-9H-purin-9-yl)-N-ethyl-3,4-dihydroxytetrahydrofuran-2-carboxamide; format: functional
[8] = organism: Mus musculus; experiment: Selectivity index, ratio of Ki for mouse A3A adenosine receptor to Ki for mouse A1A adenosine receptor expressed in CHO cell membranes after 60 mins by scintillation proximity assay
[9] = system: Mus musculus; experiment: Induction of hypothermia in C57BL/6J mouse assessed as body temperature at 3 mg/kg, ip measured at 60 mins post dose (reference value: 36.3 +/- 0.8 degC); format: functional
[10] = system: Mus musculus; experiment: Induction of hypothermia in C57BL/6J mouse assessed as activity counts at 3 mg/kg, ip measured at 60 mins post dose (reference value: 15.5 +/- 5.5); format: functional
[11] = Fraction unbound in human plasma at 10 uM; format: ADME, cell-free
[12] = Fraction unbound in mouse plasma at 10 uM; format: ADME, cell-free
[13] = Fraction unbound in rat plasma at 10 uM; format: ADME, cell-free
[14] = biological target: T5, Adenosine receptor A1 (Homo sapiens) (UniProt P30542); experiment: Displacement of [3H]N6-R-phenylisopropyladenosine from human A1A adenosine receptor expressed in CHO cell membranes at 10 uM after 60 mins by scintillation proximity assay relative to adenosine 5-N-ethyluronamide
T5 sequence (whole entry): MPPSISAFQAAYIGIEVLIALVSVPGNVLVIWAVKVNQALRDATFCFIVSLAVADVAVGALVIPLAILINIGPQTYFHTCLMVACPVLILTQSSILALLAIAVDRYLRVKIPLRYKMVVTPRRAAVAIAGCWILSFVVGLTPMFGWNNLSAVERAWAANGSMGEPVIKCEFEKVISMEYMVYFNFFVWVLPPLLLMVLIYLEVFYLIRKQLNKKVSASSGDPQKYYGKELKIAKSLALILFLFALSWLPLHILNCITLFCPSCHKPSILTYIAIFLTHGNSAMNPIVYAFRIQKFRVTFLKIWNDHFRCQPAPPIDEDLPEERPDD

[15] = biological target: Translocator protein (Homo sapiens, UniProt P30536); experiment: Inhibition of TSPO (unknown origin)
Sequence of Translocator protein (P30536 whole entry): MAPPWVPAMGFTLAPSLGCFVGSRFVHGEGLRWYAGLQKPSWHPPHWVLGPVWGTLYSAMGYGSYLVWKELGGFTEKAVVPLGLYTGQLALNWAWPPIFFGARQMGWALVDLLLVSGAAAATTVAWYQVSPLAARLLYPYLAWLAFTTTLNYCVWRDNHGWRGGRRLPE

[16] = biological target: T6, Adenosine receptor A1 (Mus musculus, UniProt Q60612); experiment: Displacement of [3H]N6-R-phenylisopropyladenosine from mouse A1A adenosine receptor expressed in CHO cell membranes after 60 mins by scintillation proximity assay
T6 sequence (Q60612 whole entry): T4 sequence (whole entry)

[17] = biological target: T7, Adenosine receptor A3 (Mus musculus, UniProt Q61618); experiment: Displacement of [125I]N6-(4-amino-3-iodobenzyl)adenosine-5-N-methyluronamide from mouse A3A adenosine receptor expressed in CHO cell membranes after 60 mins by scintillation proximity assay
T7 sequence (Q61618 whole entry): T3 sequence (whole entry)

[18] = system: Mus musculus; experiment: Induction of hypothermia in C57BL/6J mouse assessed as body temperature at 10 mg/kg, ip measured at 60 mins post dose (reference value: 36.3 +/- 0.8 degC); format: functional
[19] = system: Mus musculus; experiment: Induction of hypothermia in C57BL/6J mouse assessed as activity counts at 10 mg/kg, ip measured at 60 mins post dose (reference value: 15.5 +/- 5.5); format: functional
[20] = biological target: T8, 5-hydroxytryptamine receptor 2C (Homo sapiens, UniProt P28335); experiment: Inhibition of 5HT2C (unknown origin)
T8 sequence (P28335 whole entry): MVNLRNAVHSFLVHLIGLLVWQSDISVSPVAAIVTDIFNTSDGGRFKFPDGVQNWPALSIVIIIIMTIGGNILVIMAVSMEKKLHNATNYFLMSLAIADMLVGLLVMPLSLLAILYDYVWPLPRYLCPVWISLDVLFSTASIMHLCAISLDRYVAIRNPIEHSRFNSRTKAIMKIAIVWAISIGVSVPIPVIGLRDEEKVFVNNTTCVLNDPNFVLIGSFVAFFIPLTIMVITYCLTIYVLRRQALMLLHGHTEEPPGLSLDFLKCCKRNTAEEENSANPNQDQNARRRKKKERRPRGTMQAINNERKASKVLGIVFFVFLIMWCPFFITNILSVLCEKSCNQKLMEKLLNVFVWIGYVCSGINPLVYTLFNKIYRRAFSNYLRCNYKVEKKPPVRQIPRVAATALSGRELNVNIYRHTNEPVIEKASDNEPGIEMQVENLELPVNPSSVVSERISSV

[21] = biological target: Sigma non-opioid intracellular receptor 1 (Homo sapiens, UniProt Q99720); experiment: Inhibition of sigma receptor 1 (unknown origin)
Sequence of Sigma non-opioid intracellular receptor 1 (Q99720 whole entry): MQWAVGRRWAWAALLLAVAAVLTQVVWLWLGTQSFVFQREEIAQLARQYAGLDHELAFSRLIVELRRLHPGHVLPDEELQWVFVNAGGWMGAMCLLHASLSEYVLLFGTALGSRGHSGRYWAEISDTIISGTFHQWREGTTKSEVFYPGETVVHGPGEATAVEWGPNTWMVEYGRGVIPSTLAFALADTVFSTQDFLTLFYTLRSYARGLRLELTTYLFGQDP

[22] = biological target: 5-hydroxytryptamine receptor 2B (Homo sapiens, UniProt P41595); experiment: Inhibition of 5HT2B (unknown origin)
Sequence of 5-hydroxytryptamine receptor 2B (P41595 whole entry): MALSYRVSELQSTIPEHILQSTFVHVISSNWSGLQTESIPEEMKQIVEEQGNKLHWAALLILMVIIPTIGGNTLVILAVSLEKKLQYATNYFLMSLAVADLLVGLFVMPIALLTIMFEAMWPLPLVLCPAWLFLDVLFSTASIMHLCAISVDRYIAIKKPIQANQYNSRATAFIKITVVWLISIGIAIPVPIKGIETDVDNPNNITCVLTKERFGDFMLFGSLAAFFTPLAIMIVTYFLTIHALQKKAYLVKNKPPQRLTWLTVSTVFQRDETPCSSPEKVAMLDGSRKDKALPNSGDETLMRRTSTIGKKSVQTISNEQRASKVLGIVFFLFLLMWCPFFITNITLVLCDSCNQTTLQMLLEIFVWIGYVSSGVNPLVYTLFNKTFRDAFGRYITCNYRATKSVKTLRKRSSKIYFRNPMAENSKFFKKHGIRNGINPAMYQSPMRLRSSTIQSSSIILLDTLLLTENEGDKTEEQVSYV

[23] = biological target: T9, Adenosine receptor A1 (Homo sapiens, UniProt P30542); experiment: Displacement of [3H]N6-R-phenylisopropyladenosine from human A1A adenosine receptor expressed in CHO cell membranes after 60 mins by scintillation proximity assay
T9 sequence (P30542 whole entry): T5 sequence (whole entry)

[24] = biological target: T1, Adenosine receptor A2a; experiment: Displacement of [3H]2-[p-(2-carboxyethyl)phenylethylamino]-5-N-ethylcarboxamidoadenosine from human A2A adenosine receptor expressed in HEK293 cell membranes after 60 mins by scintillation proximity assay
[25] = biological target: T10, Adenosine receptor A3 (Homo sapiens, UniProt P0DMS8); experiment: Displacement of [125I]N6-(4-amino-3-iodobenzyl)adenosine-5-N-methyluronamide from human A3A adenosine receptor expressed in CHO cell membranes after 60 mins by scintillation proximity assay
T10 sequence (P0DMS8 whole entry): T2 sequence (whole entry)

Sequence of Adenosine receptor A2a (Mus musculus) (Q60613 whole entry): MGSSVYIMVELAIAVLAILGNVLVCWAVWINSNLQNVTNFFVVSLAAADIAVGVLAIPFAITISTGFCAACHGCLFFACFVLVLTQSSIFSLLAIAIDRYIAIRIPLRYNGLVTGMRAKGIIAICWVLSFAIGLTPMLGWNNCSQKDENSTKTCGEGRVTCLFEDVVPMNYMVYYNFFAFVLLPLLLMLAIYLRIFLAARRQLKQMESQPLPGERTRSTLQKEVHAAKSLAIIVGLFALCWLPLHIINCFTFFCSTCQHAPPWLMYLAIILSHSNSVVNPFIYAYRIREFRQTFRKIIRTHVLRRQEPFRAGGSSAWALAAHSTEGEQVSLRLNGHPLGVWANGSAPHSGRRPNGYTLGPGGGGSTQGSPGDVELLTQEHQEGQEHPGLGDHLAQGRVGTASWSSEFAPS

O=C(NCCO)[C@@]12C[C@@H]1[C@@H](n1cnc3c(N[C@H]4C[C@H]5CC[C@@H]4C5)nc(Cl)nc31)[C@H](O)[C@@H]2O
inhibition [1]: 23%

CCOC(=O)[C@@]12C[C@@H]1[C@@H](n1cnc3c(NC(C4CCC4)C4CCC4)nc(Cl)nc31)[C@H](O)[C@@H]2O
inhibition [2]: 57%
Ki [3]: 2.02 µM

NC(=O)c1ncn([C@@H]2O[C@H](CO)[C@@H](O)[C@H]2O)n1
inhibition [2]: 23%
inhibition [4]: 16%
inhibition [5]: 0%

O[C@H]1[C@H](n2cnc3c(N[C@H]4C[C@H]5CC[C@@H]4C5)nc(Cl)nc32)[C@H]2C[C@@]2(CCl)[C@H]1O
inhibition [2]: 54%
inhibition [1]: 15%
Emax [6]: 123%
Emax [7]: 50%
Ratio Ki [8]: 270
T [9]: 36.6 °C
Activity [10]: 16.8
Fu [11]: 4.04%
Fu [12]: 2.95%
Fu [13]: 2.53%

O[C@H]1[C@H](n2cnc3c(NC(C4CCC4)C4CCC4)nc(Cl)nc32)[C@H]2C[C@@]2(CSc2ccccc2F)[C@H]1O
inhibition [14]: 45%
inhibition [2]: 22%
inhibition [1]: 20%
Ki [3]: 0.583 µM

OC[C@@]12C[C@@H]1[C@@H](n1cnc3c(N[C@H]4C[C@H]5CC[C@@H]4C5)nc(Cl)cc31)[C@H](O)[C@@H]2O
inhibition [2]: 29%

Nc1ncnc2c1ncn2[C@@H]1O[C@H](C(=O)O)[C@@H](O)[C@H]1O [5'-CARBOXY ADENOSINE]
inhibition [14]: 24%
inhibition [2]: 11%
inhibition [4]: 32%
Ki [3]: 0.796 µM

O[C@H]1[C@H](n2cnc3c(NC(C4CCC4)C4CCC4)ncnc32)[C@H]2C[C@@]2(CCl)[C@H]1O
inhibition [2]: 38%
inhibition [4]: 49%
Ki [3]: 1.17 µM
Ki [15]: 2.02 µM
T [9]: 35.9 °C
Activity [10]: 14.8

COC(=O)c1ncn([C@H]2[C@H](O)[C@H](O)[C@]3(CO)C[C@H]23)n1
inhibition [14]: 6%
inhibition [2]: 14%
inhibition [4]: 22%
inhibition [5]: 15%
Ki [3]: 1.72 µM

OC[C@H]1O[C@@H](n2cnc3c(N[C@H]4C[C@H]5CC[C@@H]4C5)ncnc32)[C@H](O)[C@@H]1O
Ki [16]: 0.00014 µM
Ki [17]: 0.424 µM

O[C@@H]1[C@H](O)[C@@H](CCl)O[C@H]1n1cnc2c(NC(C3CCC3)C3CCC3)ncnc21
Ki [3]: 0.662 µM
Ki [15]: 3.98 µM
T [18]: 35.8 °C
Activity [19]: 20.5

O[C@@H]1[C@H](O)[C@@H]2C[C@@H]2[C@H]1n1cnc2c(NC(C3CCCC3)C3CCCC3)nc(Cl)nc21
Ki [20]: 2.92 µM
Ki [3]: 2.01 µM
Ki [21]: 5.09 µM

OC[C@@]12C[C@@H]1[C@@H](n1cnc3c(NC(C4CCC4)C4CCC4)nc(Cl)nc31)[C@H](O)[C@@H]2O
inhibition [2]: 55%
inhibition [1]: 26%
inhibition [4]: 25%
Ki [15]: 2.93 µM
T [18]: 36.6 °C
Activity [19]: 18.4

CNC(=O)[C@]12C[C@@H]1[C@@H](n1cnc3c(NC4CCCC4)nc(Cl)nc31)[C@H](O)[C@@H]2O
Ki [16]: 0.00068 µM
Ki [17]: 0.00346 µM
Ki [22]: 0.012 µM

CCOC(=O)[C@@]12C[C@@H]1[C@@H](n1cnc3c(NC(C4CC4)C4CC4)nc(Cl)nc31)[C@H](O)[C@@H]2O
Ki [20]: 0.054 µM

OC[C@H]1O[C@@H](n2cnc3c(NC(C4CCC4)C4CCC4)nc(Cl)nc32)[C@H](O)[C@@H]1O
Emax [6]: 90%
Emax [7]: 63%
Ratio Ki [8]: 1000
T [9]: 35.5 °C
Activity [10]: 13.5
Fu [11]: 5.81%
Fu [12]: 4.74%
Fu [13]: 4.64%

O[C@@H]1[C@H](O)[C@@H](CSc2ccccc2F)O[C@H]1n1cnc2c(N[C@@H]3CCC[C@H]3O)ncnc21 [GS-9667]
Ki [23]: 0.012 µM
Ki [24]: > 10 µM

O[C@@H]1[C@H](O)[C@@H](CCl)O[C@H]1n1cnc2c(NC3C[C@H]4CC[C@@H]3C4)ncnc21 (mixture of isomers)
Ki [24]: 1.34 µM
Ki [25]: 1.29 µM
Ki [17]: 2.41 µM
T [9]: 32.2 °C
Activity [10]: 2.8

Nc1nc(Cl)nc2c1ncn2[C@H]1[C@H](O)[C@H](O)[C@]2(CCl)C[C@H]12
Ki [23]: 0.00761 µM
Ki [24]: 1.75 µM
Ki [25]: 0.253 µM
Ki [3]: 2.55 µM
Ki [21]: 1.97 µM

O[C@H]1[C@H](n2cnc3c(NC(C4CCC4)C4CCC4)nc(Cl)nc32)[C@H]2C[C@@]2(CCl)[C@H]1O
inhibition [2]: 17%
inhibition [1]: 20%
Ki [3]: 0.349 µM
Ki [15]: 2.89 µM
T [18]: 36.5 °C
Activity [19]: 18.9

Reference: ChEMBL document CHEMBL4368904 (J Med Chem, 2019)
